Entries after “also recorded” stand apart in the source; their conditions may differ.

The test system of assay [1] is RA/Bt2cAMP-treated F9 cells. As to the kind of experiment: [125I]-HDL internalization and degradation assay. The assay is classed as cell-based, mouse. To be noted: [125I]-HDL 2 μg/ml, 6.5 h at 37° C.; unlabeled HDL 80 μg/ml, RAP 1 μM, chloroquine 50 μM, anti-cubilin IgG 150 μg/ml. The method, then:
HDL internalization and degradation assays were performed in a manner similar to LDL and apolipoprotein J internalization and degradation assays described previously (Stefansson et al., 1995; Kounnas et al., 1995). ApoE-free HDL (HDL3) was labeled with [^125I]-iodine using the iodine monochloride method (Goldstein et al., 1983). RA/Bt2cAMP-treated and -untreated F9 cells were seeded onto gelatin-coated 3.83 cm^2 wells (Corning, Corning, N.Y.) at 1.5-1.75×10^5 cells/well and allowed to grow for 18 h at 37° C., 5% CO2. Prior to the addition of [^125I]-HDL, the cells were washed with serum-free DMEM and incubated in the assay medium (DMEM, 20 mM HEPES, ITS, penicillin/streptomycin, and 1.5% BSA) containing unlabeled HDL3 (80 μg/ml), RAP (1 μM), chloroquine (50 μM) (Sigma) or BSA (10 μM) and incubated for 0.5 hours at 37° C., 5% CO2. The medium was then removed and [^125I]-HDL3 (2 μg/ml) in serum-free medium or in serum-free medium containing unlabeled HDL3 (80 μg/ml), RAP (1 μM), chloroquine (50 μM) or BSA (10 μM) was added and incubated with the cells for 6.5 h at 37° C., 5% CO2. The conditioned culture medium was treated with trichloroacetic acid (final concentration 10%) and centrifuged at 10,000×g for 10 min. The amount of radioactivity present in the supernatant was taken to represent the amount of degraded HDL (Goldstein and Brown, 1974). […] The released cells were pelleted by centrifugation at 1,000×g for 15 min and the amount of radioactivity in the cell pellet measured.
HDL internalization and degradation assays were performed as described previously for LDL and apolipoprotein J (Hammad et al., 1997; Kounnas et al., 1995; Stefansson et al., 1995a). […] The amount of radioactivity in the supernatant was taken to represent the amount of degraded HDL (Goldstein and Brown, 1974). […] The released cells were pelleted by centrifugation at 1,000×g for 15 min and the amount of radioactivity in the cell pellet was measured and taken to represent the amount of internalized HDL.

Assay [2] has as its system RA/Bt2cAMP-treated F9 cells. As to the kind of experiment: DiI-HDL uptake by fluorescence-activated cell (FAC) scanning. In kind it is cell-based, mouse. The following applies: DiI-HDL 1 μg/ml, 37° C., competitors preincubated, apolipoproteins and RAP 1 μM, apoE 0.25 μM, heparin 80 μM, IgGs 200 μg/ml, heparinase I 10 U/ml. As for the experimental part: Untreated and RA/Bt2cAMP-treated F9 cells (1-1.5×10^5 cells/cm^2) were grown for 18 hours in serum-free medium (DMEM, ITS, penicillin, and streptomycin). After washing the cell layers with the same serum-free medium, apoE-free DiI-HDL was added to a final concentration of 1 μg/ml and incubated for 1-2 hours at 37° C., 5% CO2. For competition experiments, competitors were added in serum-free medium and incubated for 0.5 hours at 37° C., 5% CO2 prior to the addition of the DiI-HDL. After the incubation, the medium was removed, cell layers washed with serum-free medium and the cells released with a 0.5 mg/ml trypsin-0.53 mM EDTA solution (Mediatech). The cells were then pelleted by centrifugation at 180×g and resuspended in DMEM. Twice more, the cells were pelleted by centrifugation at 180×g, and resuspended in dPBS. The cells were then subjected to FAC sorting on a FACStarplus instrument (Becton Dickinson, San Jose, Calif.).
RA/Bt2cAMP-treated and -untreated F9 cells (1-1.5×10^5 cclls/cm^2) were grown for 18 h in SFM. After washing the cell layers with SFM, DiI-HDL or DIO-LDL was added to a final concentration of 1 μg/ml and incubated for 2 h at 37° C., 5% CO2. For competition experiments, competitors (HDL, HDL2, HDL3 and their corresponding apoE-free forms), LDL, oxidized LDL, VLDL, §-VLDL, Lp(a) ([…]), apoA-I (28.3 μg/ml, 1 μM), apoA-II (I 7.3 μg/ml, 1 μM), apoC-I (6.6 μg/ml, 1 μM), apoC-III (8.8 μg/ml, 1 μM), apoJ (70 μg/ml, 1 μM), ovalbumin (45 μg/ml, 1 μM), RAP (39 μg/ml, 1 μM), apoE (8.5 μg/ml, 0.25 μM), heparin (80 μM, 250 U/ml) or IgGs (200 μg/ml) were added in SFM and incubated for 45 min at 37° C., 5% CO2 prior to the addition of the fluorescent lipoproteins. After the incubation, the medium was removed, cell layers were washed with SFM and the cells were released with trypsin-EDTA-proteinase K. The cells were washed once with DMEM, twice with dPBS, then subjected to FAC scanning on a FACStar Plus instrument (Becton Dickinson, San Jose, Calif.). Plotted data are from gated cells having fluorescence intensity values greater than the autofluorescence values of 99% of unlabeled cells. For some experiments, cell layers were treated with hepaninase I (10 U/ml) for 2 h prior to the addition of the DiI-HDL.

Assay [3] has as its system RA/Bt2cAMP-treated F9 cells. The assay can be described thus: Cell layer-associated [35S]-sulfate after heparinase I treatment. The assay is classed as cell-based, mouse. The following applies: heparinase I 10 U/ml for 2 h; relative to controls.
For assay [4], the system named is visceral yolk sac endoderm. As to the kind of experiment: DiI-HDL uptake by mouse embryo yolk sac (ex utero culture, confocal microscopy). To be noted: ± S.D.; DiI-HDL 1 μg/ml 1 h; RAP, ovalbumin 1 μM; IgGs 400 μg/ml; p<0.01 vs control. The method, then:
Embryos (8-8.5 days post-conception) were removed from timed pregnant ICR mice (Harlan Sprague Dawley, Inc.) so as to leave visceral yolk sac endoderm intact and placed in DMEM. The embryos were then incubated in DMEM containing RAP (1 μM), ovalbumin (1 μM), rabbit anti-cubilin IgG (400 μg/ml) or normal rabbit IgG (400 μg/ml) for 0.5 h at 37° C., 5% CO2. DiI-HDL was added to a final concentration of (1 μg/ml) and incubated for 1 h at 37° C., 5% CO2. The medium was removed and the embryos gently washed with dPBS and fixed with 3% paraformaldehyde for 15 min. The fixed embryos were placed in dPBS, 0.1% azide in a well slide and examined by laser scanning confocal microscopy. The intensity of yolk sac fluorescence in mouse embryos incubated with DiI-HDL in the presence of either RAP, ovalbumin, anti-cubilin IgG or control IgG was evaluated by seven people in a double blinded fashion. The assessments of relative intensity were analyzed by a nonparametric statistical test using RANK and ANOVA procedures (SAS Institute, Inc., Cary, N.C.).

In the case of `CCN(CC)CCCC(C)Nc1ccnc2cc(Cl)ccc12` (centres unmarked) [chloroquine, reference compound], in assay [1], the “degradation of [125I]-HDL” value was “effectively block the degradation”.

“ApoAII: Human apolipoprotein, major apolipoprotein component of HDL”: the entries for the “DiI-HDL uptake in presence of competitor” value in assay [2] and in assay [2] (listed as apoA-E) were “inhibit HDL uptake” and “competed effectively”, respectively.

On to ApoE2: apolipoprotein component of HDL, for which the “DiI-HDL uptake in presence of competitor” value in assay [2] is reported as “inhibit HDL uptake”.

Regarding Aprotinin [reference compound], the “DiI-HDL uptake in presence of competitor” value in assay [2] is “inability of these ligands to block HDL uptake”.

Consider Fucoidan [reference compound], for which the “DiI-HDL uptake in presence of competitor” value in assay [2] was “inability of these ligands to block HDL uptake”.

In the case of “apoA-I: Human apolipoprotein, major apolipoprotein component of HDL”, the “DiI-HDL uptake in presence of competitor” value in assay [2] was “competed effectively”; in assay [2] (listed as ApoAI), “inhibit HDL uptake”.

Take “apoC-1: Human apolipoprotein (TPDVSSALDKLKEFGNTLEDKARELISRIKQSELSAKMREWFSETFQKVKEKLKIDS; UniProt P02654 27-83, looked up)”: in assay [2], the “DiI-HDL uptake in presence of competitor” value is recorded as “little or no ability to compete”.

As for apoC-III: Human apolipoprotein, the “DiI-HDL uptake in presence of competitor” value in assay [2] is “little or no ability to compete”.

For “apoE: Human apoE3 purchased from Calbiochem”, the “DiI-HDL uptake in presence of competitor” value in assay [2] was “competed effectively”.

On to apoj: apolipoprotein J from Quidel, for which the “DiI-HDL uptake in presence of competitor” value in assay [2] was “little or no ability to compete”.

For the molecule heparin [reference compound], the “DiI-HDL uptake in presence of competitor” value in assay [2] is “Neither heparin nor heparinase I pretreatment of RA/Bt2cAMP-differentiated F9 cells inhibited DiI-HDL uptake; also recorded: did not block HDL uptake”.

For heparinase I [reference compound], the “reduction of cell layer-associated [35S]-sulfate” value in assay [3] is on record as 50%. Further, the entries for the “DiI-HDL uptake in presence of competitor” value in assay [2] and in assay [2] (listed as heparinase) were “Neither heparin nor heparinase I pretreatment of RA/Bt2cAMP-differentiated F9 cells inhibited DiI-HDL uptake” and “did not block HDL uptake”, respectively.

B1: ovalbumin: control protein (protein, UniProt P01012 2-386, looked up)
Ovalbumin: GSIGAASMEFCFDVFKELKVHHANENIFYCPIAIMSALAMVYLGAKDSTRTQINKVVRFDKLPGFGDSIEAQCGTSVNVHSSLRDILNQITKPNDVYSFSLASRLYAEERYPILPEYLQCVKELYRGGLEPINFQTAADQARELINSWVESQTNGIIRNVLQPSSVDSQTAMVLVNAIVFKGLWEKAFKDEDTQAMPFRVTEQESKPVQMMYQIGLFRVASMASEKMKILELPFASGTMSMLVLLPDEVSGLEQLESIINFEKLTEWTSSNVMEERKIKVYLPRMKMEEKYNLTSVLMAMGITDVFSSSANLSGISSAESLKISQAVHAAHAEINEAGREVVGSAEAGVDAASVSEEFRADHPFLFCIKHIATNAVLFFGRCVSP
As for B1, the “fluorescence intensity RANK score of DiI-HDL incorporation into extraembryonic endoderm” value in assay [4] is reported as 4.16±0.15.
